Experimental data from patent US6713265B1 (Synaptic Pharmaceutical Corporation, priority 1999, dated 2004).

Legend:
human Y4 receptor = target: T1, human Y4 receptor (Homo sapiens, UniProt P50391); test: ^125I-PYY binding to membranes, cloned human Y4 receptor; details: read-out: Binding Affinity Ki vs. ^125I-PYY, Human Receptor Y4; Table 14; stably transfected LM(tk-) cells
T1 construct: expressed in transfected cells; host or cells: COS-7 (transient)

5HT1Dβ = target: T2, 5HT1Dβ (Homo sapiens, UniProt P28222); test: Binding at cloned human 5HT1Dβ receptor
T2 construct: expressed in transfected cells; host or cells: LM(tk-), line Ltk-11 (ATCC CRL 10422)
Procedure: The cell line for the 5HT1Dα receptor, designated as Ltk-8-30-84, was deposited on Apr. […] The cell for the 5HT1Dβ receptor, designated as Ltk-11, was deposited on Apr. […] Membrane preparations comprising these receptors were prepared as described below, and suspended in 50 mM Tris-HCl buffer (pH 7.4 at 37° C.) containing 10 mM MgCl2, 0.2 mM EDTA, 10 μM pargyline, and 0.1% ascorbate. The binding of compounds was determined in competition binding assays by incubation for 30 minutes at 37° C. in the presence of 5 nM [^3H]serotonin. Nonspecific binding was determined in the presence of 10 μM serotonin.

α1d = target: T3, α1d (Homo sapiens, UniProt P25100); test: Binding at cloned human α1d adrenergic receptor
T3 sequence (P25100 1-572): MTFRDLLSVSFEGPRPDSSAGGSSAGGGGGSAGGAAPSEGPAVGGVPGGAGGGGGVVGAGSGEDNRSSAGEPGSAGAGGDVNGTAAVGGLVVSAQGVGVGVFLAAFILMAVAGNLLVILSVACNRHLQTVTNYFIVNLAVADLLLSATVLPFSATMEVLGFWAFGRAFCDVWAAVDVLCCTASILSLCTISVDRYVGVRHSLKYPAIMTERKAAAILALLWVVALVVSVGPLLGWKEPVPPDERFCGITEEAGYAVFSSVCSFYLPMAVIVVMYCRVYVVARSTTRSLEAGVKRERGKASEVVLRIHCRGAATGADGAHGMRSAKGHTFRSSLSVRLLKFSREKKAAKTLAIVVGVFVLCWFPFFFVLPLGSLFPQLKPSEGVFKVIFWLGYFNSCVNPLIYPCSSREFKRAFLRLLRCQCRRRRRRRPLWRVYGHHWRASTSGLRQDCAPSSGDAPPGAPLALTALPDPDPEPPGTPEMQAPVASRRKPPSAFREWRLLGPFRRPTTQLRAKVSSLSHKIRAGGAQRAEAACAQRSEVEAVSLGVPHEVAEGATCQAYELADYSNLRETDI

α1b = target: T4, α1b (Homo sapiens, UniProt P35368); test: Binding at cloned human α1b adrenergic receptor
T4 sequence (P35368 1-520): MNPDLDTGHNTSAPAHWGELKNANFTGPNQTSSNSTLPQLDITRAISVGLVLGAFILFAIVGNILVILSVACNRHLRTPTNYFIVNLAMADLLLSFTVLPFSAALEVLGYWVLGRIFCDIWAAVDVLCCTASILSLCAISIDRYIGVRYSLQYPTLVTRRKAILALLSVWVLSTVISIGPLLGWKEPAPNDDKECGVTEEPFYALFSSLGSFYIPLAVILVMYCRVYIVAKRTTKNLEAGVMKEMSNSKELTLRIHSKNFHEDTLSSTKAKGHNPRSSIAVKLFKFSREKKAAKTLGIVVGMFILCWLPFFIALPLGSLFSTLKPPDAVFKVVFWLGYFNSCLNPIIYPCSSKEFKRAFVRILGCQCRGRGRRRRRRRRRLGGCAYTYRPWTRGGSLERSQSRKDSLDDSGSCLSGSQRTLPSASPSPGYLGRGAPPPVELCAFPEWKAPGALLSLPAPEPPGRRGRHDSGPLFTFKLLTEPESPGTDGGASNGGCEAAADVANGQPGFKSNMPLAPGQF

α2b = target: T5, α2b (Homo sapiens, UniProt P18089); test: Binding at cloned human α2b adrenergic receptor
T5 sequence (P18089 1-450): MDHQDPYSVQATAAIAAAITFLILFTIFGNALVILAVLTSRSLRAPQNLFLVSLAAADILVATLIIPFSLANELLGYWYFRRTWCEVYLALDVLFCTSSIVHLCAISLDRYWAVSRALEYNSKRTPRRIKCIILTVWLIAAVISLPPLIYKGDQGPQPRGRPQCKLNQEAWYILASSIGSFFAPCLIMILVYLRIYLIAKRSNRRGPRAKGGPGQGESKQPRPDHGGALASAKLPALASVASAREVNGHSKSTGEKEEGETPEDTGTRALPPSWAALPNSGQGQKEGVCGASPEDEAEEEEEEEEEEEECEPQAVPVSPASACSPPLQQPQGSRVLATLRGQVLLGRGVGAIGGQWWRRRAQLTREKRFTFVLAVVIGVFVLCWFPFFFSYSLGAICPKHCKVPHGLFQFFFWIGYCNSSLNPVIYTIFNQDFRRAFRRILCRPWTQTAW

human Y5 receptor = target: T6, human Y5 receptor (Homo sapiens, UniProt Q15761); test: Radioimmunoassay of cAMP, cells stably expressing human Y5 receptor; assay type: cell-based; parameters: Ki Values, Human Y5; apparent Kd; pKd; The isolated clone (CG-19) turned out to contain a full length cDNA; The longest open reading frame encodes a 455 amino acid protein; details: block of NPY-induced inhibition of cAMP accumulation, forskolin-stimulated LM(tk-) cells, human Y5
T6 sequence (Q15761 1-445): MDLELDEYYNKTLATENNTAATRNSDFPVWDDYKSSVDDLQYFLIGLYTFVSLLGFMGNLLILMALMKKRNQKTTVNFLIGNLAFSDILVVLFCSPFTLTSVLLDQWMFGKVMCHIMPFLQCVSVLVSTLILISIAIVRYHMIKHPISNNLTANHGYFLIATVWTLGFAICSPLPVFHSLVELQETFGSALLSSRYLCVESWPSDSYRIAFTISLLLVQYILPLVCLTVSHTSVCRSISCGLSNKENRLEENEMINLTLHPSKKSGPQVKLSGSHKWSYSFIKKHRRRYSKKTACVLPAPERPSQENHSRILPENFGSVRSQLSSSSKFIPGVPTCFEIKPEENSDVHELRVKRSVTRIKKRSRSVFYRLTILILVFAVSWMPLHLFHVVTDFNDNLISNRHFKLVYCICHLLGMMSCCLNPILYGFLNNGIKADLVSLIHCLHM
Procedure: LM(tk-) cells stably transfected with the human Y5 receptor were routinely converted from an adherent monolayer to a viable suspension. […] The cell suspension was maintained in a shaking incubator at 37° C., 5% CO2 for 24 hours. […] Alternatively, cells may be returned to adherent cell culture in complete DMEM by distribution into 96-well microtiter plates coated with poly-D-lysine (0.01 mg/ml) followed by incubation at 37° C., 5% CO2 for 24 hours.
The maximum inhibition of cAMP accumulation (Emax) and the concentration producing a half-maximal effect (EC50) were determined by nonlinear regression analysis according to a 4 parameter logistic equation.
The ability of the compounds to antagonize the Y-type receptors is reported as the Kb. […] The results shown are representative of at least three independent experiments.

T1 sequence (P50391 whole entry): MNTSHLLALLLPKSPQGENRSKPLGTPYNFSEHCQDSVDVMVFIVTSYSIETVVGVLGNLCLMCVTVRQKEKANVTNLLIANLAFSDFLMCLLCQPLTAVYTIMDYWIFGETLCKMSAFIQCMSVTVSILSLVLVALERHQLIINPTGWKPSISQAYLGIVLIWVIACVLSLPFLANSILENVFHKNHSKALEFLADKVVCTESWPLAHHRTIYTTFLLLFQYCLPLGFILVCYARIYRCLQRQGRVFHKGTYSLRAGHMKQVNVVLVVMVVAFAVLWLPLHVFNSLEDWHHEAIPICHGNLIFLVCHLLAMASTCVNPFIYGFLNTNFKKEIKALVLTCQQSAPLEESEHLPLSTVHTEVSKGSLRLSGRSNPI
T2 sequence (P28222 whole entry): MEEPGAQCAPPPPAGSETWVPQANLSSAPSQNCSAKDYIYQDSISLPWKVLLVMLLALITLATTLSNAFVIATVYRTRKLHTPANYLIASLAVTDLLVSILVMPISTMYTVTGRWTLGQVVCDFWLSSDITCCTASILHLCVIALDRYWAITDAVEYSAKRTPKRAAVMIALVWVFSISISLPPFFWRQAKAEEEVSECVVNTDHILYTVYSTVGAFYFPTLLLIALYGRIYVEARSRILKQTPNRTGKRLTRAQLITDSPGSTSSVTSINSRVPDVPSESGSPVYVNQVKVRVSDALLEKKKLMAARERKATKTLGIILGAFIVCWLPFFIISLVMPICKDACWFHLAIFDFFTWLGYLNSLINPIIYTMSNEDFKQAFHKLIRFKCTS

Cl.Cl.Nc1ccccc1S(=O)(=O)NC[C@H]1CC[C@H](CNCC2CCc3ccccc3C2)CC1 (mixture of isomers) [Compound 22]
Ki (human Y4 receptor): 27.5 µM | pKi 5HT1Dβ (5HT1Dβ): 5.41 | pKi α1d (α1d): 6.80 | pKi α1b (α1b): 6.98 | pKi α2b (α2b): 6.43 | Kb (human Y5 receptor): 0.003 µM

Cl.O=S(=O)(NC[C@H]1CC[C@H](CNCC2CCc3ccccc3C2)CC1)c1cccc2ccccc12 (mixture of isomers) [Compound 19]
Ki (human Y4 receptor): 11.7 µM | pKi α1d (α1d): 6.90 | pKi α1b (α1b): 7.35 | pKi α2b (α2b): 6.58 | Kb (human Y5 receptor): 0.023 µM

Cl.O=[N+]([O-])c1ccccc1S(=O)(=O)NC[C@H]1CC[C@H](CNCC2CCc3ccccc3C2)CC1 (mixture of isomers) [Compound 20]
Ki (human Y4 receptor): 20.4 µM | pKi 5HT1Dβ (5HT1Dβ): 5.37 | pKi α1d (α1d): 7.01 | pKi α1b (α1b): 7.22 | pKi α2b (α2b): 6.96 | Kb (human Y5 receptor): 0.026 µM
